Assay results from US20260234107A1, “TRYPTAMINES AND METHODS OF TREATING MOOD DISORDERS” (priority 2022, published 2026).
Like-named read-outs stand apart in the source and are kept apart here.

Legend:
[1] = Stability in rat brain homogenate; assay type: in vitro ADME, male Sprague Dawley rats; settings: rat brain homogenate, 1 μM, 37° C.; for half-life at 1 µM: male, Sprague Dawley
Experimental: Disclosed compounds were tested for stability in rat brain homogenate (Table 8). There was widely variable stability among the test compounds under the conditions of the experiment.
(§1) Rat Brain Homogenate Stability. Frozen rat brain homogenate (pooled from male Sprague Dawley rats, BioreclamationIVT, RAT00BRAINMZA) was thawed in a water bath at 37° C. immediately prior to use. Positive controls and test compounds (final concentration in incubation medium=1 μM for test compounds and 2 μM for controls, all with 2% DMSO) were incubated in duplicate for each time point (0, 10, 30, 60, and 120 min) in the rat brain homogenate at a total reaction volume of 100 μL at 37° C. At the end of each incubation period, reactions were immediately quenched with 400 μL of acetonitrile containing internal standard (200 ng/mL tolbutamine and 200 ng/mL labetalol) and mixed thoroughly. Plates were then sealed, shaken for 20 min, and centrifuged at 4,000 rpm and 4° C. for 20 min. Aliquots of 50 μL of each supernatant were diluted into 100 μL of water and the mixtures were then shaken again for 10 min.

[2] = test system: monoamine oxidase A and B (MAO-A and MAO-B); assay: Stability in the presence of monoamine oxidases (human liver mitochondria preparation); set-up: half-life / microsomal CLint: dose or concentration left out as unconfirmed; settings: for Remaining (t = 60 min) / half-life / microsomal CLint: human liver mitochondria; for half-life / microsomal CLint: human, pH 7.4; for stability in the presence of MAO (in words): human liver mitochondria preparation
Experimental: Liver Mitochondria Incubations. Human liver mitochondria (Xenotech H0610.M) were used.

rat synaptosomes = assay: Serotonin (5-HT) release from rat synaptosomes; assay type: biochemical, Male Sprague-Dawley rats; settings: for EC50: rat synaptosomes preloaded with [3H]5-HT; for % Release @ Max Dose (10 μM): rat synaptosomes
Experimental: Disclosed compounds were assessed for their ability to release serotonin (5-HT) from […] (Table 9). Potency and efficacy for 5-HT release varied substantially depending on the specific compound. […] However, there was also substantial variability among 4-hydroxy compounds.
Synaptosome 5-HT Release Assay. Synaptosome release assays were conducted according to modifications of previously described procedures (Partilla et al. (2016). Interrogating the Activity of Ligands at Monoamine Transporters in Rat Brain Synaptosomes. In Neurotransmitter Transporters (pp. 41-52). Springer.). Briefly, synaptosomes were prepared from rat brains. Male Sprague-Dawley rats were rendered unconscious with CO2 and their brains were immediately removed. The cerebella were discarded and the whole brains (minus striatum) were placed in ice-cold 0.32 M sucrose (10 mL per brain) and gently homogenized by hand. The homogenate of each brain was centrifuged at 1,000×g at 4° C. for 10 mins and the resulting supernatant was diluted with ice-cold 0.32 M sucrose to a total volume of 10 mL to provide the synaptosome solution. Synaptosomes were then preloaded with 5 nM [^3H]5-HT in the presence of selective uptake inhibitors of DAT (50 nM GBR12935), NET (100 nM nomifensine), and VMAT2 (1 μM reserpine) in Krebs phosphate buffer (KPB). The incubations were allowed to reach equilibrium for 2 h at 25° C. For the release reactions, 425 μL of preloaded synaptosomes were added to test tubes containing 75 μL of test drugs diluted in KPB containing 1 mg/mL BSA. After 10 mins, the release reaction was stopped using a cell harvester by rapid vacuum filtration over GF/B filter paper presoaked in wash buffer (10 mM Tris-HCl, pH 7.4, 150 mM NaCl) and the filters were washed with additional wash buffer. Filters were dried for 1 h at 60° C. and retained radioactivity was quantified using a MicroBeta 2 liquid scintillation counter. The amount of retained radioactivity was inversely proportional to the extent of release.

[3] = Stability in mouse brain homogenate; assay type: in vitro ADME, male CD-1 mice; settings: mouse brain homogenate, 1 μM, 37° C.; for half-life at 1 µM: male, CD-1
Experimental: Disclosed compounds were tested for stability in mouse brain homogenate (Table 7). There was widely variable stability among the test compounds under the conditions of the experiment.
as §1, with “Mouse Brain” for “Rat Brain”, “Frozen mouse” for “Frozen rat”, “male CD-1 mice,” for “male Sprague Dawley rats,”, “BioreclamationIVT, MSE00BRAINMZA)” for “BioreclamationIVT, RAT00BRAINMZA)”, “the mouse” for “the rat”

[4] = Metabolic stability in human liver microsomes (HLM); set-up: microsomal CLint / half-life: dose or concentration left out as unconfirmed; settings: both, human, pooled human liver microsomes, pH 7.4
5-HT1A = molecular target: T1, 5-HT1A (Homo sapiens, UniProt P08908); assay: FLIPR Ca2+ flux agonist assay at 5-HT1A; assay type: cell-based; settings: for 5-HT1A % Act @ Max Dose: Ca2+ flux, CHO cells
T1 construct: host or cells: CHO cells
T1 sequence (P08908 1-422): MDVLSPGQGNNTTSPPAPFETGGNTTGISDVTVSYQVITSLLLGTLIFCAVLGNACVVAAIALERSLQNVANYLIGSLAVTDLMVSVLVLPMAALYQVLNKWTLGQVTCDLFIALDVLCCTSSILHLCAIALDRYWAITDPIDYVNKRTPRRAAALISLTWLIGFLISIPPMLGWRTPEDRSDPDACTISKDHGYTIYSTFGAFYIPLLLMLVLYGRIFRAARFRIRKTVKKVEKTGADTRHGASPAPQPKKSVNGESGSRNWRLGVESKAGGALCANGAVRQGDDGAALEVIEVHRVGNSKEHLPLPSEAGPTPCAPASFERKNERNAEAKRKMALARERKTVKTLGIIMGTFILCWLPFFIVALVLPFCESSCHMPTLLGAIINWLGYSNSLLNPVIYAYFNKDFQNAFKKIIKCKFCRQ
Experimental: (§2) A solution of 250 mM probenecid in 1 mL FLIPR assay buffer was prepared fresh. This was combined with a fluorescent dye (Fluo-4 Direct™) to make a final assay concentration of 2.5 mM. […] The fluorescent dye was then added to the assay plate along with assay buffer to a final volume of 40 μL. The cell plate was incubated for 50 min at 37° C. and 5% CO2 and placed into the FLIPR Tetra along with the compound plate. 10 μL of references and compounds were then transferred from the compound plate into the cell plate and the fluorescent signal was read.

5-HT2A = 5-HT2A (Homo sapiens, UniProt P28223); assay: FLIPR Ca2+ flux agonist assay at 5-HT2A; assay type: cell-based; set-up: host or cells: HEK293; settings: for 5-HT2A % Act @ Max Dose: HEK293, max dose
Chain of 5-HT2A (P28223 whole entry): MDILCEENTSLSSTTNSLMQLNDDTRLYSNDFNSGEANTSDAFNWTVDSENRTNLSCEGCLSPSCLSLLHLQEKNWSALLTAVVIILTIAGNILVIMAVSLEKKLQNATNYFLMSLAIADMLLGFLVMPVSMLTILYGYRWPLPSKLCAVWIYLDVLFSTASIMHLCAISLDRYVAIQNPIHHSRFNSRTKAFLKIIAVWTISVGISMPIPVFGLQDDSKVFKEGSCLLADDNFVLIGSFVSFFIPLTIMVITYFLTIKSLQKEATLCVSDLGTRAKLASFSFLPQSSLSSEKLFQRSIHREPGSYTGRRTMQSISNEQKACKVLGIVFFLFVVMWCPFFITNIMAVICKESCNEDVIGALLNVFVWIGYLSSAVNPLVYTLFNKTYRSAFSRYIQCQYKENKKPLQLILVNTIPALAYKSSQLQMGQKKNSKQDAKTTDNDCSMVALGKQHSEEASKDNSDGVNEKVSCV
Experimental: as §2

5-HT2B = molecular target: T2, 5-HT2B (Homo sapiens, UniProt P41595); assay: FLIPR Ca2+ flux agonist assay at 5-HT2B; assay type: cell-based; settings: for 5-HT2B % Act @ Max Dose: Ca2+ flux, HEK293, max dose
T2 construct: host or cells: HEK293
T2 sequence (P41595 whole entry, species assumed): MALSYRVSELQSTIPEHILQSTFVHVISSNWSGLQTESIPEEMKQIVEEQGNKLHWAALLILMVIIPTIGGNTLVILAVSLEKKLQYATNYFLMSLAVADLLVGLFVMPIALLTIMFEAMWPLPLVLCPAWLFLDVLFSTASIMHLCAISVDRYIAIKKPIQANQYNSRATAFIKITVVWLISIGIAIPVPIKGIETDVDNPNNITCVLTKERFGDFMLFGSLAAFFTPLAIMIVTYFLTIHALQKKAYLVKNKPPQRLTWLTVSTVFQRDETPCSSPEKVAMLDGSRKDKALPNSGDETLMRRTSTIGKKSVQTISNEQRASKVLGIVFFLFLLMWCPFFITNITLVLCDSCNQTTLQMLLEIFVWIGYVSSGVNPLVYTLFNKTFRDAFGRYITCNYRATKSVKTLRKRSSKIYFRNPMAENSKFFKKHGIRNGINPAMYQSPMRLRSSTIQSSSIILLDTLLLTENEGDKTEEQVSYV
Experimental: as §2

[5] = human liver mitochondria 0.30 mg protein/mL, 37° C.

Compound: CC(C)NCCc1c[nH]c2cccc(O)c12 [Compound 6, 3-(2-(isopropylamino)ethyl)-1H-indol-4-ol]
- half-life at 1 µM [1]: 2.27 h
- % Compound Remaining (after 120 min) [1]: 53.8%
- Remaining (t = 60 min) [2]: 80.5%
- half-life [2]: > 2.42 h
- microsomal CLint [2]: < 15.9 µL/min/mg
- EC50 (rat synaptosomes): > 10000 nM
- % Release @ Max Dose (10 μM) (rat synaptosomes): 32.8%
- half-life at 1 µM [3]: 2.71 h
- % Compound Remaining (after 120 min) [3]: 62.6%
- half-life [4]: > 2.42 h
- microsomal CLint [4]: < 9.6 µL/min/mg
- EC50 (5-HT1A): > 100000 nM
- 5-HT1A % Act @ Max Dose (5-HT1A): 10.15%

Compound: C#CCNCCc1c[nH]c2cccc(O)c12 [Compound 24, 3-(2-(prop-2-yn-1-ylamino)ethyl)-1H-indol-4-ol]
- half-life at 1 µM [1]: 1.54 h
- % Compound Remaining (after 120 min) [1]: 41.9%
- Remaining (t = 60 min) [2]: 87.2%
- half-life [2]: > 2.42 h
- microsomal CLint [2]: < 15.9 µL/min/mg
- EC50 (5-HT2A): 20.1 nM
- 5-HT2A % Act @ Max Dose (5-HT2A; Ca2+ flux): 96.07%
- half-life at 1 µM [3]: 1.62 h
- % Compound Remaining (after 120 min) [3]: 40.5%
- EC50 (5-HT2B): 88.3 nM
- 5-HT2B % Act @ Max Dose (5-HT2B): 48.26%
- half-life [4]: 1.54 h
- microsomal CLint [4]: 15 µL/min/mg
- EC50 (5-HT1A): > 100000 nM
- 5-HT1A % Act @ Max Dose (5-HT1A): −3.14%

Compound: Oc1c(F)ccc2[nH]cc(CCNC3CC3)c12 [Compound 27, 3-(2-(cyclopropylamino)ethyl)-5-fluoro-1H-indol-4-ol]
- half-life at 1 µM [1]: 0.252 h
- % Compound Remaining (after 120 min) [1]: 0.4%
- stability in the presence of MAO (in words) [2]: intermediate stability
- Remaining (t = 60 min) [2]: 32.1%
- half-life [2]: 0.603 h
- microsomal CLint [2]: 63.9 µL/min/mg
- EC50 (5-HT2A; Ca2+ flux, HEK293, read-out: 5-HT2A EC50): 7.37 nM
- half-life at 1 µM [3]: 1.16 h
- % Compound Remaining (after 120 min) [3]: 29.4%
- EC50 (5-HT2B): 9.53 nM
- 5-HT2B % Act @ Max Dose (5-HT2B): 36.08%
- half-life [4]: 0.33 h
- microsomal CLint [4]: 70 µL/min/mg
- EC50 (5-HT1A): 1230 nM
- 5-HT1A % Act @ Max Dose (5-HT1A): 84.02%

Compound: CN(C)CCc1c[nH]c2ccccc12 [DMT, N,N-dimethyltryptamine, reference compound]
- t1/2 [1]: 5.1 min
- % Compound Remaining (after 120 min) [1]: 0.0%
- CLint(MAO) [2, 5]: 134.9 µL/min/mg
- t1/2 [2, 5]: 0.285 h
- stability in the presence of MAO (in words) [2]: rapidly metabolized by MAO
- Remaining (t = 60 min) [2]: 8.9%
- EC50 (rat synaptosomes): 80.8 nM
- % Release @ Max Dose (10 μM) (rat synaptosomes): 80.77%
- t1/2 [3]: 6.4 min
- % Compound Remaining (after 120 min) [3]: 0.0%

Compound: CCNCCc1c[nH]c2cc(F)cc(O)c12 [Compound 29, 3-(2-(ethylamino)ethyl)-6-fluoro-1H-indol-4-ol]
- half-life at 1 µM [1]: 1.89 h
- % Compound Remaining (after 120 min) [1]: 51.9%
- Remaining (t = 60 min) [2]: 99.1%
- half-life [2]: > 2.42 h
- microsomal CLint [2]: < 15.9 µL/min/mg
- EC50 (5-HT2A): 17.4 nM
- 5-HT2A % Act @ Max Dose (5-HT2A; Ca2+ flux): 80.80%
- half-life at 1 µM [3]: 0.998 h
- % Compound Remaining (after 120 min) [3]: 29.9%
- 5-HT2B % Act @ Max Dose (5-HT2B): 12.18%
- half-life [4]: > 2.42 h
- microsomal CLint [4]: < 9.6 µL/min/mg
- 5-HT1A % Act @ Max Dose (5-HT1A): 16.22%

Compound: CNCCc1c[nH]c2cc(C)cc(O)c12 [Compound 39, 6-methyl-3-(2-(methylamino)ethyl)-1H-indol-4-ol]
- half-life at 1 µM [1]: 0.105 h
- % Compound Remaining (after 120 min) [1]: 0.1%
- Remaining (t = 60 min) [2]: 13.5%
- half-life [2]: 0.297 h
- microsomal CLint [2]: 130 µL/min/mg
- EC50 (5-HT2A): 78.4 nM
- 5-HT2A % Act @ Max Dose (5-HT2A; Ca2+ flux): 76.43%
- half-life at 1 µM [3]: 0.258 h
- % Compound Remaining (after 120 min) [3]: 0.4%
- EC50 (5-HT2B): > 10000 nM
- 5-HT2B % Act @ Max Dose (5-HT2B): 10.04%
- half-life [4]: 0.165 h
- microsomal CLint [4]: 140 µL/min/mg
- EC50 (5-HT1A): > 100000 nM
- 5-HT1A % Act @ Max Dose (5-HT1A): 4.4%

Compound: CCCNCCc1c[nH]c2cccc(O)c12 [Compound 3, 3-(2-(propylamino)ethyl)-1H-indol-4-ol]
- half-life at 1 µM [1]: 2.28 h
- % Compound Remaining (after 120 min) [1]: 52.5%
- stability in the presence of MAO (in words) [2]: highly stable
- Remaining (t = 60 min) [2]: 97.3%
- half-life [2]: > 2.42 h
- microsomal CLint [2]: < 15.9 µL/min/mg
- EC50 (rat synaptosomes): > 10000 nM
- % Release @ Max Dose (10 μM) (rat synaptosomes): 36.06%
- half-life at 1 µM [3]: 1.21 h
- % Compound Remaining (after 120 min) [3]: 29.2%
- half-life [4]: 1.99 h
- microsomal CLint [4]: 11.6 µL/min/mg
- EC50 (5-HT1A): 33100 nM
- 5-HT1A % Act @ Max Dose (5-HT1A): 10.7%
